These results are taken from patent US7179836B2, “Chemical compounds” (SmithKline Beecham Corporation, priority 2001, dated 2007).

For this assay, the target named is Recombinant GST-Tie2 (Homo sapiens, UniProt Q02763). Nature of the assay: Tie2 fluorescence polarization kinase activity assay (TIE2-FP). Format: biochemical. The following applies: 200 μM ATP, 1 nM activated enzyme, 200 μM peptide. On the procedure:
Tie2 Fluorescence Polarization Kinase Activity Assay (TIE2-FP).
Activation of Recombinant Tie2 Activation:
Recombinant GST-Tie2 is activated by incubating the enzyme in 20 mM Tris-HCl, pH 7.5, 12 mM MgCl2, 100 mM NaCl, 20 μM sodium vanidate, 1 mM DTT and 300 μM ATP at room temperature for 2 hours. The activation mixture is then passed through a NAP-25 desalting column (Pharmacia Biotech cat. no. 17-0852-02) to remove the free ATP. The activated enzyme is stored as aliquots at −80° C. in 20 mM Tris-HCl, pH 7.5 and 100 mM NaCl.
The final assay conditions are 50 mM HEPES, pH 7.5, 5% DMSO (when screening compounds), 200 μM ATP, 5 mM MgCl2, 1 mM DTT, 50 μM sodium vanidate, 1 nM activated enzyme, and 200 μM peptide. IC50's of compounds are measured under subsaturating ATP (200 μM) and varing concentrations of activated Tie2 and peptide substrate (RFWKYEFWR-OH; MW 1873 Da, TFA salt). Panvera Anti-phosphotyrosine antibody (Cat#P2840) and PTK Green Tracer (Cat#P2842) are used to detect the phosphorylated peptide. Polarization is measured on a TECAN Polarion in 138-second cycles for 30 minutes at room temperature. IC50's are then determined from the % polarization using normal calculation methods.
Background: Fluorescence polarisation rises when a labelled molecule tumbles more slowly, as on binding a larger partner.

Chain of Recombinant GST-Tie2 (Q02763 23-1124): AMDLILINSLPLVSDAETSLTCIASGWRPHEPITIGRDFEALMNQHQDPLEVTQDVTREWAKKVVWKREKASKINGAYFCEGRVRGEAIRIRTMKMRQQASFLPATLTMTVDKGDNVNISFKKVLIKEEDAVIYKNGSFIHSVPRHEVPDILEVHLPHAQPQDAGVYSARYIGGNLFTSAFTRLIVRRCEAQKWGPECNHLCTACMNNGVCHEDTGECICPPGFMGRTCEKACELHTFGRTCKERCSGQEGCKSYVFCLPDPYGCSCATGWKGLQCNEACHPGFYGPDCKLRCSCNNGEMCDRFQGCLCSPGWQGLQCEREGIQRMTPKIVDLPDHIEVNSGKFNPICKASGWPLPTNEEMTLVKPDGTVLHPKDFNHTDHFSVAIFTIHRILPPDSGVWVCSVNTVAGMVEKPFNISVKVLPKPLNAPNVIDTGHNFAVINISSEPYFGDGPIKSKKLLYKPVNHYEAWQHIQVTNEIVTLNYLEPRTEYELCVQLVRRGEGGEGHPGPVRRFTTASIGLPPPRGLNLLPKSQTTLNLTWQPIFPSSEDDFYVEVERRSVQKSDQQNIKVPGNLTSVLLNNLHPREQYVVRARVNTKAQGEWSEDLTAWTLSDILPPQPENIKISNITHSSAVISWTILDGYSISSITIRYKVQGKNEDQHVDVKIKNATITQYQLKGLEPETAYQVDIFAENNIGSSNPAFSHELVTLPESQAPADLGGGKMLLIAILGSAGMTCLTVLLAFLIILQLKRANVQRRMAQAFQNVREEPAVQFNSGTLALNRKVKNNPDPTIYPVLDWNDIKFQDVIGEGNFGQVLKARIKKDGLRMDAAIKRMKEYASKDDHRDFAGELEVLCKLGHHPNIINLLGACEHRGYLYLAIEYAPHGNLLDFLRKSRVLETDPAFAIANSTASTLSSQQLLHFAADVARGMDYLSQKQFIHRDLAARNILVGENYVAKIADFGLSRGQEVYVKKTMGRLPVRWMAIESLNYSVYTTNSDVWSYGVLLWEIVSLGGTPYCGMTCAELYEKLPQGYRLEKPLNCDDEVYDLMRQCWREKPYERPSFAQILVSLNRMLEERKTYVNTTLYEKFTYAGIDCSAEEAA

In the case of `NC(=O)c1c(-c2ccc(NC(=O)Nc3cc(C(F)(F)F)ccc3F)cc2)csc1N` [Example 1, 2-Amino-4-{4-[3-(2-fluoro-5-trifluoromethyl-phenyl)-ureido]-phenyl}-thiophene-3-carboxylic acid amide], the half-maximal inhibitory concentration (IC50) was under 0.1 µM.

The IC50 is the concentration at which inhibition is half-maximal.
